{"source": "ChEMBL document CHEMBL5257035", "about": "“Nucleoside Derived Antibiotics to Fight Microbial Drug Resistance: New Utilities for an Established Class of Drugs?” (J Med Chem, 2016)", "key": {"[1]": {"system": "Mycobacterium tuberculosis", "test": "Antimycobacterial activity against Mycobacterium tuberculosis H37Rv assessed as reduction in bacterial growth", "type": "functional"}, "[2]": {"system": "Pseudomonas aeruginosa", "test": "Antibacterial activity against Pseudomonas aeruginosa ATCC 27853 assessed as reduction in microbial growth by broth microdilution method", "type": "functional"}, "[3]": {"system": "Mycobacterium avium", "test": "Antimycobacterial activity against Mycobacterium avium ATCC 25291 assessed as bacterial growth inhibition", "type": "functional"}, "[4]": {"system": "Candida albicans", "test": "Antifungal activity against Candida albicans SC5314 assessed as reduction in microbial growth inhibition incubated for 48 hrs by broth microdilution assay", "type": "functional"}, "[5]": {"test": "Inhibition of Candida albicans SC5314 chitin synthase using UDP-GlcNAc as substrate incubated for 1 hr"}, "[6]": {"system": "Staphylococcus chromogenes", "test": "Antibacterial activity against wild type Staphylococcus chromogenes 7100 assessed as bacterial growth inhibition", "type": "functional"}, "[7]": {"system": "Candida albicans", "test": "Antifungal activity against Candida albicans assessed as inhibition of fungal growth", "type": "functional"}, "[8]": {"system": "Candida albicans", "test": "[…] activity against Candida albicans assessed as […] measured after 24 hrs by microtitre dilution method", "type": "functional"}, "[9]": {"system": "Cutaneotrichosporon cutaneum", "test": "Antifungal activity against Trichosporon cutaneum 3071 assessed as reduction in microbial growth inhibition for 48 hrs by broth microdilution assay", "type": "functional"}, "[10]": {"system": "Candida albicans", "test": "Antifungal activity against Candida albicans B-311 assessed as reduction fungal growth incubated for 16 hrs by microbroth dilution method", "type": "functional"}, "[11]": {"system": "Pseudomonas aeruginosa", "test": "Antibacterial activity against Pseudomonas aeruginosa infected in mouse", "type": "functional"}, "[12]": {"system": "Pseudomonas aeruginosa", "test": "Antibacterial activity against Pseudomonas aeruginosa assessed as bacterial growth inhibition", "type": "functional"}, "[13]": {"system": "Candida albicans", "test": "Antifungal activity against wild type Candida albicans", "type": "functional"}, "[14]": {"biological_target": "T1, Phospho-N-acetylmuramoyl-pentapeptide-transferase (Escherichia coli, UniProt E2QF15)", "T1 sequence (E2QF15 whole entry)": "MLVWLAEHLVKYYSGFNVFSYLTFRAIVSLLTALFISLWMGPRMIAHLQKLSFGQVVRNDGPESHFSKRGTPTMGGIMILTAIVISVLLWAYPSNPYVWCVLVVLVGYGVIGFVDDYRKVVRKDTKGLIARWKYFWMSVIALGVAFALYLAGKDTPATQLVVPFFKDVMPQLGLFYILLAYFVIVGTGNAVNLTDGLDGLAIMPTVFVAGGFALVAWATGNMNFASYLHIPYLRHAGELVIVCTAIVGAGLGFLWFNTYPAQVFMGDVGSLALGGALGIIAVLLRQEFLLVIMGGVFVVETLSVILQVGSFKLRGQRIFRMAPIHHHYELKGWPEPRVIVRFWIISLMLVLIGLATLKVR", "test": "Inhibition of MraY in Escherichia coli"}, "[15]": {"system": "Streptococcus pyogenes", "test": "Antimicrobial activity against Streptococcus pyogenes ATCC 12344 assessed as reduction in microbial growth by broth microdilution method", "type": "functional"}, "[16]": {"system": "Enterococcus faecium", "test": "Antimicrobial activity against Enterococcus faecium ATCC 19434 assessed as reduction in microbial growth by broth microdilution method", "type": "functional"}, "[17]": {"system": "Staphylococcus aureus", "test": "Antimicrobial activity against methicillin-resistant Staphylococcus aureus 10925 assessed as reduction in microbial growth by broth microdilution method", "type": "functional"}, "[18]": {"system": "Mycolicibacterium smegmatis", "test": "Antibacterial activity against Mycobacterium smegmatis ATCC 607 assessed as bacterial growth inhibition", "type": "functional"}, "[19]": {"biological_target": "Phospho-N-acetylmuramoyl-pentapeptide-transferase (Staphylococcus aureus, UniProt P0C1R8)", "sequence (P0C1R8 whole entry)": "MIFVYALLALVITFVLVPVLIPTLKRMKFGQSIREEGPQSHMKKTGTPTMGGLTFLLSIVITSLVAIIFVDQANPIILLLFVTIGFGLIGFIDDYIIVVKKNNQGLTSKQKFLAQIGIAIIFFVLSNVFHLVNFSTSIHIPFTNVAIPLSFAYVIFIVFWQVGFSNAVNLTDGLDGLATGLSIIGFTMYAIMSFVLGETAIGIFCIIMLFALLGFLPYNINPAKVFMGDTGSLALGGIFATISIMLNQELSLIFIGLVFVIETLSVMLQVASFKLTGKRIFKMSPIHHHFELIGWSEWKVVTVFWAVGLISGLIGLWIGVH", "test": "Inhibition of Staphylococcus aureus MraY"}, "[20]": {"system": "Pseudomonas aeruginosa", "test": "Antibacterial activity against beta-lactam resistant Pseudomonas aeruginosa assessed as bacterial growth inhibition", "type": "functional"}, "[21]": {"system": "Mycobacterium kansasii", "test": "Antimycobacterial activity against Mycobacterium kansasii ATCC12478 assessed as microbial growth reduction", "type": "functional"}, "[22]": {"system": "Mycobacterium intracellulare", "test": "Antimycobacterial activity against Mycobacterium intracellulare ATCC1954 E-3 assessed as microbial growth reduction", "type": "functional"}, "[23]": {"system": "Candida albicans", "test": "Antifungal activity against Candida albicans ATCC 10231 assessed as reduction in fungal growth incubated for 12 hrs by broth microdilution method", "type": "functional"}, "[24]": {"biological_target": "Phospho-N-acetylmuramoyl-pentapeptide-transferase (Bacillus subtilis (strain 168)) (UniProt Q03521)", "sequence (Q03521 whole entry)": "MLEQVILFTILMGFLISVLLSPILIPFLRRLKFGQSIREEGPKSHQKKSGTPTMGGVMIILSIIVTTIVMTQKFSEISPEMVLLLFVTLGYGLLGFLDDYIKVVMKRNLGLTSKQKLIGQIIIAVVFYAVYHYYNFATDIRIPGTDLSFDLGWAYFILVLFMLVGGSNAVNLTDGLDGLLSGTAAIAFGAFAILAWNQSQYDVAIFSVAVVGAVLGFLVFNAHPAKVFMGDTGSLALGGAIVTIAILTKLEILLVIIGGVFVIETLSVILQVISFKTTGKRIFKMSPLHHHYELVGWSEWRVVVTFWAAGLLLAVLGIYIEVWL", "test": "Inhibition of Bacillus subtilis MraY at 11.4 uM relative to control"}, "[25]": {"system": "Mycobacterium avium", "test": "Antimycobacterial activity against Mycobacterium avium ATCC 25291 assessed as reduction in microbial growth", "type": "functional"}}}
{"compound": "CN(C[C@H](NC(=O)[C@H](CC[S+](C)[O-])NC(=O)N[C@@H](Cc1c[nH]c2ccccc12)C(=O)O)C(=O)N/C=C1/C[C@@H](O)[C@H](n2ccc(=O)[nH]c2=O)O1)C(=O)[C@@H](N)Cc1cccc(O)c1", "note": "(stereo partly drawn)", "values": [{"measurement": "MIC", "setting": "[1]", "value": 8, "unit": "µg/mL"}, {"measurement": "MIC", "setting": "[2]", "value": 8, "unit": "µg/mL"}]}
{"compound": "CN1C(=O)[C@H]([C@H](O[C@H]2O[C@@H](CN)[C@H](O)[C@@H]2O)[C@H]2O[C@@H](n3ccc(=O)[nH]c3=O)[C@H](O)[C@@H]2O)N(C)CC=C1C(=O)O", "values": [{"measurement": "MIC", "setting": "[3]", "value": 0.05, "unit": "µg/mL"}]}
{"compound": "C[C@@H]([C@H](N)C(=O)N[C@H](C(=O)O)[C@H]1OC(n2cc(C=O)nc2O)[C@H](O)[C@@H]1O)[C@H](O)c1ccc(O)cn1", "note": "(stereo partly drawn) [NIKKOMYCIN X]", "values": [{"measurement": "MIC", "setting": "[4]", "value": 16, "unit": "µg/mL"}, {"measurement": "IC50", "setting": "[5]", "value": 0.1, "unit": "µg/mL"}, {"measurement": "MIC", "setting": "[6]", "value": 2, "unit": "µg/mL"}, {"measurement": "MIC", "setting": "[7]", "value": 2, "unit": "µg/mL"}, {"measurement": "MIC", "setting": "[8]", "value": 0.5, "unit": "µg/mL"}, {"measurement": "MIC", "setting": "[9]", "value": 64, "unit": "µg/mL"}, {"measurement": "MIC", "setting": "[10]", "value": 2.5, "unit": "µg/mL"}]}
{"compound": "CSCC[C@H](NC(=O)NC(Cc1cccc(O)c1)C(=O)O)C(=O)NC(CN(C)C(=O)[C@@H](N)C(N)Cc1cccc(O)c1)C(=O)N/C=C1/C[C@@H](O)[C@H](N2CCC(=O)NC2=O)O1", "note": "(stereo partly drawn)", "values": [{"measurement": "ED50", "setting": "[11]", "value": "> 0.1", "unit": "mg/kg"}, {"measurement": "MIC", "setting": "[12]", "value": 1.5, "unit": "µg/mL"}]}
{"compound": "CSCC[C@H](NC(=O)NC(Cc1cccc(O)c1)C(=O)O)C(=O)NC(CN(C)C(=O)[C@@H](N)C(N)Cc1cccc(O)c1)C(=O)N/C=C1/C[C@@H](O)[C@H](n2ccc(=O)[nH]c2=O)O1", "note": "(stereo partly drawn)", "values": [{"measurement": "ED50", "setting": "[11]", "value": 0.05, "unit": "mg/kg"}, {"measurement": "MIC", "setting": "[12]", "value": 1.5, "unit": "µg/mL"}]}
{"compound": "NC[C@H]1O[C@@H](O[C@@H](Cc2cn(CCCCCCCCCCc3ccccc3)nn2)[C@H]2O[C@@H](n3ccc(=O)[nH]c3=O)[C@H](O)[C@@H]2O)[C@H](O)[C@@H]1O", "values": [{"measurement": "MIC", "setting": "[13]", "value": 20, "unit": "µg/mL"}, {"measurement": "IC50", "setting": "[14]", "value": 8, "unit": "µM"}]}
{"compound": "CCCCCCCCCCCCC[C@@H](CC(=O)O[C@H]1CN(C)[C@@H]([C@H](O[C@H]2O[C@@H](CN)[C@H](O)[C@@H]2O)[C@H]2O[C@@H](n3ccc(=O)[nH]c3=O)[C@H](OS(=O)(=O)O)[C@@H]2O)C(=O)N(C)[C@@H]1C(=O)O)OC(=O)C[C@H](C)CC(=O)O[C@@H]1O[C@@H](C)[C@H](OC)[C@@H](OC)[C@H]1OC", "values": [{"measurement": "MIC", "setting": "[15]", "value": 4, "unit": "µg/mL"}, {"measurement": "MIC", "setting": "[16]", "value": 4, "unit": "µg/mL"}, {"measurement": "MIC", "setting": "[17]", "value": 4, "unit": "µg/mL"}]}
{"compound": "CO[C@H]1[C@@H](O)[C@H](n2ccc(=O)[nH]c2=O)O[C@@H]1[C@@H](O[C@@H]1OC(C(=O)N[C@H]2CCC[C@@H](C)NC2=O)=C[C@@H](O)[C@H]1O)C(N)=O", "values": [{"measurement": "MIC", "setting": "[18]", "value": 6.25, "unit": "µg/mL"}, {"measurement": "IC50", "setting": "[19]", "value": 0.017, "unit": "µM"}]}
{"compound": "CSCC[C@H](NC(=O)NC(Cc1cccc(O)c1)C(=O)O)C(=O)NC(CN(C)C(=O)[C@@H](N)C(Cc1cccc(O)c1)NCC(=O)O)C(=O)N/C=C1/C[C@@H](O)[C@H](n2ccc(=O)[nH]c2=O)O1", "note": "(stereo partly drawn)", "values": [{"measurement": "MIC", "setting": "[12]", "value": 1.5, "unit": "µg/mL"}, {"measurement": "MIC", "setting": "[20]", "value": 0.1, "unit": "µg/mL"}]}
{"compound": "CO[C@H]1[C@@H](O)[C@H](n2ccc(=O)[nH]c2=O)O[C@@H]1[C@@H](O[C@@H]1OC(C(=O)Nc2ccc(F)c(F)c2)=C[C@@H](O)[C@H]1O)C(N)=O", "values": [{"measurement": "MIC", "setting": "[21]", "value": 0.5, "unit": "µg/mL"}, {"measurement": "MIC", "setting": "[22]", "value": 0.5, "unit": "µg/mL"}]}
{"compound": "CC1(C)O[C@@H]2[C@H](O1)[C@@H](Cn1cc(COc3ccccc3)nn1)O[C@H]2n1ccc(=O)[nH]c1=O", "values": [{"measurement": "MIC", "setting": "[23]", "value": 8, "unit": "µg/mL"}]}
{"compound": "NC[C@H]1O[C@@H](OC[C@H]2O[C@@H](n3ccc(=O)[nH]c3=O)[C@H](OS(=O)(=O)O)C2(F)F)[C@H](O)[C@@H]1O", "values": [{"measurement": "inhibition", "setting": "[24]", "value": 29, "unit": "%"}]}
{"compound": "CCCCCCCCCC[C@H](CC(=O)O[C@H]1CN(C)[C@@H]([C@@H](O[C@@H]2O[C@H](CN)[C@@H](O)[C@H]2O)[C@H]2O[C@@H](n3ccc(=O)[nH]c3=O)[C@H](O)[C@@H]2O)C(=O)N(C)[C@@H]1C(=O)O)OC(=O)C[C@H](C)CC(=O)O", "values": [{"measurement": "MIC", "setting": "[25]", "value": 1.2, "unit": "µg/mL"}]}
